The test system of test [1] is MaTu-ADR. Description: Proliferation assay, MaTu-ADR. The following applies: Homo sapiens, 96 h; MaTu-ADR cells, 4 days, crystal violet. In kind it is cell-based.
Test [2] deals with MCF7, hormone-independent human breast cancer cells. Description: Proliferation assay, MCF7. The following applies: 96 h, 4 days, crystal violet. The format is cell-based. The text has this: (§1) Cultivated human tumor cells (MCF7, hormone-independent human breast cancer cells, related to ATCC HTB22; NCI-H460, human non-small-cell lung cancer cells, ATCC HTB-177; DU 145, hormone-independent human prostate cancer cells, ATCC HTB-81; MaTu-MDR, hormone-independent, multiple pharmaceutical agent-resistant human breast cancer cells, EPO-GmbH, Berlin) were flattened out at a density of about 5000 cells/measuring point, depending on the growth rate of the respective cells, in a 96-well multititer plate in 200 μl of the corresponding growth medium. After 24 hours, the cells of one plate (zero-point plate) were colored with crystal violet (see below), while the medium of the other plates was replaced by fresh culture medium (200 μl), to which the test substances were added in various concentrations (0 μm, as well as in the range of 0.01-30 μm; the final concentration of the solvent dimethyl sulfoxide was 0.5%). The cells were incubated for 4 days in the presence of test substances. The cell proliferation was determined by coloring the cells with crystal violet: the cells were fixed by adding 20 μl/measuring point of an 11% glutaric aldehyde solution for 15 minutes at room temperature. After three washing cycles of the fixed cells with water, the plates were dried at room temperature. The cells were colored by adding 100 μl/measuring point of a 0.1% crystal violet solution (the pH was set at 3 by adding acetic acid). After three washing cycles of the colored cells with water, the plates were dried at room temperature. The dye was dissolved by adding 100 μl/measuring point of a 10% acetic acid solution. The extinction was determined by photometry at a wavelength of 595 nm. The change of cell growth, in percent, was calculated by normalization of the measured values to the extinction values of the zero-point plate (=0%) and the extinction of the untreated (0 μm) cells (=100%).

The subject of test [3] is NCI-H460, human non-small-cell lung cancer cells. Description: Proliferation assay, H460. In kind it is cell-based. The following applies: NCI-H460, 96 h, 4 days, crystal violet.
Excerpt: as §1

For test [4], the target named is T1, CDK2/CycE (Homo sapiens, UniProt P24941).
T1 construct: GST; purchased ProQinase GmbH, Freiburg; host or cells: baculovirus-infected insect cells (Sf9)
Description: CDK2/CycE kinase assay. The format is biochemical. The following applies: histone IIIS substrate, 0.5 μm ATP, 33P filter assay. Here is the method: Recombinant CDK2- and CycE-GST-fusion proteins, purified from baculovirus-infected insect cells (Sf9), were purchased by ProQinase GmbH, Freiburg. Histone IIIs, which was used as a kinase substrate, was purchased by the Sigma Company.
CDK2/CycE (50 ng/measuring point) was incubated for 15 minutes at 22° C. in the presence of various concentrations of test substances (0 μm, as well as within the range of 0.01-100 μm) in assay buffer [50 mmol of tris/HCl, pH 8.0, 10 mmol of MgCl2, 0.1 mmol of Na ortho-vanadate, 1.0 mmol of dithiothreitol, 0.5 μm of adenosine triphosphate (ATP), 10 μg/measuring point of histone IIIS, 0.2 μCi/measuring point of ^33P-gamma ATP, 0.05% NP40, 12.5% dimethyl sulfoxide]. The reaction was stopped by adding EDTA solution (250 mmol, pH 8.0, 14 μl/measuring point).
From each reaction batch, 10 μl was applied to P30 filter strips (Wallac Company), and non-incorporated ^33P-ATP was removed by subjecting the filter strips to three washing cycles for 10 minutes each in 0.5% phosphoric acid. After the filter strips were dried for one hour at 70° C., the filter strips were covered with scintillator strips (MeltiLex™ A, Wallac Company) and baked for one hour at 90° C. The amount of incorporated ^33P (substrate phosphorylation) was determined by scintillation measurement in a gamma-radiation measuring device (Wallac).

The target in test [5] is T2, VEGF receptor tyrosine kinase-2 (Homo sapiens, UniProt P35968).
T2 construct: GST; made in house; host or cells: baculovirus-infected insect cells (Sf9)
Description: VEGF receptor-2 kinase assay. The format is biochemical. The following applies: poly-(Glu4Tyr) substrate, 8 μmol ATP, 33P filter assay; read-out: VEGF-R2 IC50. Here is the method:
VEGF Receptor-2 Kinase Assay
Recombinant VEGF receptor tyrosine kinase-2 was purified as a GST fusion protein from baculovirus-infected insect cells (Sf9). Poly-(Glu4Tyr), which was used as a kinase substrate, was purchased by the Sigma Company. VEGF receptor tyrosine kinase (90 ng/measuring point) was incubated for 10 minutes at 22° C. in the presence of various concentrations of test substances (0 μm, as well as within the range of 0.001-30 μm) in 30 μl of assay buffer [40 mmol of Tris/HCl, […], 10 mmol of MgCl2, 1 mmol of MnCl2, 3 μmol of Na ortho-vanadate, 1.0 mmol of dithiothreitol, 8 μmol of adenosine trisphosphate (ATP), 27 μg/measuring point of poly-(Glu4Tyr), 0.2 μCi/measuring point of 33P-gamma ATP, 1% dimethyl sulfoxide]. The reaction was stopped by adding EDTA solution (250 mmol, pH 7.0, 10 μl/measuring point).
(§2) From each reaction batch, 10 μl was applied to P30 filter strips (Wallac Company), and non-incorporated 33P-ATP was removed by subjecting the filter strips to three washing cycles for 10 minutes each in 0.5% phosphoric acid. After the filter strips were dried for one hour at 70° C., the filter strips were covered with scintillator strips (MeltiLex™ A, Wallac Company) and baked for one hour at 90° C. The amount of incorporated 33P (substrate phosphorylation) was determined by scintillation measurement in a gamma-radiation measuring device (Wallac).

The subject of test [6] is DU 145, hormone-independent human prostate cancer cells. As to the kind of experiment: Proliferation assay, DU145. The note with it: DU-145, 96 h, 4 days, crystal violet. In kind it is cell-based.
Excerpt: as §1

Test [7] addresses Human Carboanhydrase-2 (Homo sapiens, UniProt P00918). As to the kind of experiment: Carboanhydrase assay. The following applies: 4-nitrophenyl acetate hydrolysis, 400 nm; read-out: Inhibition of Human Carboanhydrase-2 IC50. The format is biochemical. Here is the method:
2 μl of the test compounds, dissolved in DMSO (100× the final concentration), in a concentration range of 0.03-10 μm (final), was pipetted as 4× determinations into the holes of a 96-hole microtiter plate. Holes that contained the solvent without test compounds were used as reference values (1. Holes without carboanhydrase for correction of the non-enzymatic hydrolysis of the substrate, and 2. Holes with carboanhydrase for determining the activity of the non-inhibited enzyme).
188 μl of assay buffer (10 mmol of Tris/HCl, pH 7.4, 80 mmol of NaCl), with or without 3 units/hole on carboanhydrase I or II, was pipetted into the holes of the microtiter plate.

The target in test [8] is T3, CDK1/CycB (Homo sapiens, UniProt P06493).
T3 construct: GST; purchased ProQinase GmbH, Freiburg; host or cells: baculovirus-infected insect cells (Sf9)
As to the kind of experiment: CDK1/CycB kinase assay. The format is biochemical. The note with it: histone IIIS substrate, 0.5 μm ATP, 33P filter assay. On the procedure:
Recombinant CDK1- and CycB-GST-fusion proteins, purified from baculovirus-infected insect cells (Sf9), were purchased from ProQinase GmbH, Freiburg. Histone IIIS, used as a kinase substrate, is available commercially from the Sigma Company.
CDK1/CycB (200 ng/measuring point) was incubated for 15 minutes at 22° C. in the presence of various concentrations of test substances (0 μm, as well as within the range of 0.01-100 μm) in assay buffer [50 mmol of tris/HCl, pH 8.0, 10 mmol of MgCl2, 0.1 mmol of Na ortho-vanadate, 1.0 mmol of dithiothreitol, 0.5 μm of adenosine triphosphate (ATP), 10 μg/measuring point of histone IIIS, 0.2 μCi/measuring point of ^33P-gamma ATP, 0.05% NP40, 12.5% dimethyl sulfoxide]. The reaction was stopped by adding EDTA solution (250 mmol, pH 8.0, 14 μl/measuring point).
as §2

From patent publication US7456191B2, “N-Aryl-sulfoximine-substituted pyrimidines as CDK-and/or VEGF inhibitors, their production and use as pharmaceutical agents” (Schering AG, priority 2005, dated 2008) come the findings set out here.

The term IC50 denotes the concentration that gives 50% inhibition.

T3 sequence (P06493 whole entry): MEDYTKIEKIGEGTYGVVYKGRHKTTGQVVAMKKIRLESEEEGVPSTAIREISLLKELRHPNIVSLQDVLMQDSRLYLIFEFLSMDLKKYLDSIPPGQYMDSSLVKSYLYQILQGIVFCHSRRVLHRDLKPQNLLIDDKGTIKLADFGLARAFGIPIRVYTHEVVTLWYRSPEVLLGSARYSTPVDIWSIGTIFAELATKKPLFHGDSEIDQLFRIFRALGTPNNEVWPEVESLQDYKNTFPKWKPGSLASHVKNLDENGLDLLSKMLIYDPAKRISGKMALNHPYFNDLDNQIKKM
T3 sequence (P14635 whole entry partner): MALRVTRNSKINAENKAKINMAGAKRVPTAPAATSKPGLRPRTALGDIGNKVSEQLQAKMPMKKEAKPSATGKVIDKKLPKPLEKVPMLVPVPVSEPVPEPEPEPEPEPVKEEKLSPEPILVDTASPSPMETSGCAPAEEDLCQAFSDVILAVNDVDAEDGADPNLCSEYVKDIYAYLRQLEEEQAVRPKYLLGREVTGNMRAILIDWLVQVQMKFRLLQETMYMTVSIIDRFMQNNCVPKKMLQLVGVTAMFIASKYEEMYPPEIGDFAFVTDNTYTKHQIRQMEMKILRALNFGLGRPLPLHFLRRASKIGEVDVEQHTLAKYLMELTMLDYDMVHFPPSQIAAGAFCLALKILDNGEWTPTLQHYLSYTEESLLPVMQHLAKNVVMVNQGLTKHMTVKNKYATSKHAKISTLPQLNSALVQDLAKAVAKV
T2 sequence (P35968 20-1356): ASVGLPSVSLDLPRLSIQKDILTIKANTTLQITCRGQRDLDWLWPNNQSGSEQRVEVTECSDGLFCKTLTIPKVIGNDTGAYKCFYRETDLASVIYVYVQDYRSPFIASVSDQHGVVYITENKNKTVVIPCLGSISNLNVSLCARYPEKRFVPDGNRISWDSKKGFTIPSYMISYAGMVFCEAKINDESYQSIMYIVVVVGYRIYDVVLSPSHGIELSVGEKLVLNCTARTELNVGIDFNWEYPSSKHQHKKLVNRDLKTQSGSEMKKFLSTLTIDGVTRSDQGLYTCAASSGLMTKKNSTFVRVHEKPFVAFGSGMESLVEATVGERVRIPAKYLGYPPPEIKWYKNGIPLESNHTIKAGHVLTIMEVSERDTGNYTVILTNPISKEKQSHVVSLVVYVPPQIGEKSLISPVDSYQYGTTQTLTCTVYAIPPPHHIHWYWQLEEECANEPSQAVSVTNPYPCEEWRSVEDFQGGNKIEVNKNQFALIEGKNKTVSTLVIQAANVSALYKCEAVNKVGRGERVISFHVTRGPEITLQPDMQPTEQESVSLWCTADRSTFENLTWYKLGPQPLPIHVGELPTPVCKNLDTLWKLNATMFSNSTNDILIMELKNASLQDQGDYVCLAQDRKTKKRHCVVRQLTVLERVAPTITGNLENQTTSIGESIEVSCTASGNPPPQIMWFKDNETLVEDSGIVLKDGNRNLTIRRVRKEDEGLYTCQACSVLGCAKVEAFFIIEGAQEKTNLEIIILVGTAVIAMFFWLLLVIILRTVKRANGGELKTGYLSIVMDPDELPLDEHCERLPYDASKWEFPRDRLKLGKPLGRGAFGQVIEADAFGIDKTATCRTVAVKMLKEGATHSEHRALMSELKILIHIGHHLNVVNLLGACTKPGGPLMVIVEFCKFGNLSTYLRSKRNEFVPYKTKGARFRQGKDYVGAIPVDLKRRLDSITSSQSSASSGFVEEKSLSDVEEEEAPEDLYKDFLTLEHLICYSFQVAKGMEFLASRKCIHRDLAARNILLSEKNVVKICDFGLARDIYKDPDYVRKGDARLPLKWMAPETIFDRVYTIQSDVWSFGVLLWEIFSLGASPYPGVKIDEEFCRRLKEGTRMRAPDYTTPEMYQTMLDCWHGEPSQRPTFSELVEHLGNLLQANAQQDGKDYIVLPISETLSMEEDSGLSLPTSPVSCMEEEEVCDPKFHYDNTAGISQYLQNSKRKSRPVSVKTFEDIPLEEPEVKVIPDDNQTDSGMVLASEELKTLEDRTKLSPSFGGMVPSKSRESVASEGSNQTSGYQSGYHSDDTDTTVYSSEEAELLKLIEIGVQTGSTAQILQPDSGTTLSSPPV

`C[C@@H](Nc1nc(Nc2ccc(N=S(C)(C)=O)cc2)ncc1Br)C(C)(C)O` [Example 1, N-{4-[(5-Bromo-4-{[(R)-2-hydroxy-1,2-dimethylpropyl]amino}-pyrimidin-2-yl)amino]phenyl}-S,S-dimethylsulfoximide]: the IC50 in test [1] came out at 800 nM; in test [2] it was 400 nM; in test [3] it was 500 nM; in test [4], 27 nM; in test [5] it was 74 nM; in test [6], 600 nM. The IC50 was above 10000 nM in test [7] and 130 nM in test [8].

On to `C[C@@H](O)[C@@H](C)Nc1nc(Nc2ccc(N=S(C)(C)=O)cc2)ncc1Br` [Example 2, N-{4-[(5-Bromo-4-{[(1R,2R)-2-hydroxy-1-methylpropyl]amino}-pyrimidin-2-yl)amino]phenyl}-S,S-dimethylsulfoximide], for which the 50% inhibitory concentration (IC50) in test [1] was found to be 900 nM; in test [2], 600 nM; in test [3] it was 800 nM; in test [4] it was 11 nM; in test [5], 27 nM; in test [6], 1000 nM. Further, the concentration for half-maximal inhibition (IC50) in test [7] was above 10000 nM; in test [8] it was 32 nM.

As for `C[C@@H](O)[C@@H](C)Oc1nc(Nc2ccc(N=S(C)(C)=O)cc2)ncc1Br` [Example 3, N-{4-[(5-Bromo-4-{[(1R,2R)-2-hydroxy-1-methylpropyl]oxy}-pyrimidin-2-yl)amino]phenyl}S,S-dimethylsulfoximide], the IC50 in test [1] came out at 500 nM; in test [2] it was 300 nM; in test [3], 700 nM; in test [4] it was 12 nM; in test [5], 44 nM; in test [6], 1000 nM. Further, the half-inhibitory concentration (IC50) in test [7] was above 10000 nM; in test [8], 28 nM.

Consider `CC(C)[C@H](CO)Nc1nc(Nc2ccc(N=S(C)(C)=O)cc2)ncc1I` [Example 4, N-{4-[(4-{[(R)-1-(Hydroxymethyl)-2-methylpropyl]amino}-5-iodopyrimidin-2-yl)amino]phenyl}-S,S-dimethylsulfoximide], for which the figures for the IC50 in test [2], in test [4] and in test [5] were 2200 nM, 200 nM and 88 nM, respectively.

As to `Cc1cccc(Nc2nc(Nc3ccc(N=S(C)(C)=O)cc3)ncc2Br)n1` [Example 5, N-[4-({5-Bromo-4-[(6-methyl-2-pyridyl)amino]pyrimidin-2-yl}amino)phenyl]-S,S-dimethylsulfoximide], the IC50 in test [2] was 700 nM; in test [4], 340 nM; in test [5] it was 180 nM; in test [8], 490 nM.

Take `CS(C)(=O)=Nc1ccc(Nc2ncc(Br)c(Nc3ccccc3)n2)cc1` [Example 6, N-{4-[(4-Anilino-5-bromopyrimidin-2-yl)amino]phenyl}-S,S-dimethylsulfoximide]: the half-maximal inhibitory concentration (IC50) in test [1] stood at 300 nM; in test [2], 500 nM; in test [3], 400 nM; in test [5], 73 nM; in test [6] it was 300 nM.

Consider `C[C@H](CO)Nc1nc(Nc2ccc(N=S(C)(C)=O)cc2)ncc1[N+](=O)[O-]` [Example 7, N-{4-[(4-{[(R)-2-Hydroxy-1-methylethyl]amino}-5-nitropyrimidin-2-yl)amino]phenyl}-S,S-dimethylsulfoximide], for which, in test [5], the IC50 was found to be 200 nM.

On to `C#CCOc1nc(Nc2ccc(N=S(C)(C)=O)cc2)ncc1C(F)(F)F` [Example 9, S,S-Dimethyl-N-(4-{[4-(prop-2-yn-1-yloxy)-5-(trifluoromethyl)pyrimidin-2-yl]amino}phenyl)sulfoximide], for which the IC50 in test [4] came out at 260 nM; in test [5], 140 nM; in test [8] it was 670 nM.

Turning to `C#CCNc1nc(Nc2ccc(N=S(C)(C)=O)cc2)ncc1C(F)(F)F` [Example 10, S,S-Dimethyl-N-(4-{[4-(prop-2-yn-1-ylamino)-5-(trifluoromethyl)pyrimidin-2-yl]amino}phenyl)sulfoximide], the half-maximal inhibitory concentration (IC50) in test [4] turned out to be 220 nM; in test [5], 160 nM; in test [8], 400 nM.

Consider `CS(C)(=O)=Nc1ccc(Nc2ncc(Br)c(NC3(CO)CCCC3)n2)cc1` [Example 11, N-{4-[(5-Bromo-4-{[1-(hydroxymethyl)cyclopentyl]amino}pyrimidin-2-yl)amino]phenyl}-S,S-dimethylsulfoximide], for which the IC50 in test [4] was determined as 680 nM; in test [5] it was 54 nM.

As to `CS(C)(=O)=Nc1ccc(Nc2ncc(Br)c(N[C@H]3CCCC[C@@H]3O)n2)cc1` [Example 12, N-{4-[(5-Bromo-4-{[(1S,2S)-2-hydroxycyclohexyl]amino}pyrimidin-2-yl)amino]phenyl}S,S-dimethylsulfoximide], the half-inhibitory concentration (IC50) in test [4] was determined as 460 nM; in test [5], 280 nM.

In the case of `CS(C)(=O)=Nc1ccc(Nc2ncc(Br)c(N[C@@H]3CCOC3)n2)cc1` [Example 13, N-[4-({5-Bromo-4-[(R)-(2,3,4,5-tetrahydrofuran-3-yl)amino]pyrimidin-2-yl}amino)phenyl]-S,S-dimethylsulfoximide], the 50% inhibitory concentration (IC50) in test [5] worked out at 42 nM.
